{
  "source": "patent US6867179B1",
  "about": "“Methods of inducing hair growth and coloration” (Trustees of Boston University, priority 1994, dated 2005)",
  "key": {"[1]": {"tested_on": "p75", "experiment": "Regulation of p75 mRNA in melanocytes by agents that increase cAMP", "assay_type": "cell-based, human", "conditions": "forskolin 50 μM or IBMX 100 μM, within 24 hours", "description": "MC were stimulated with growth factor-containing medium supplemented with forskolin (50 μM) or IBMX (100 μM) that increase cAMP levels. […] To determine if ultraviolet (UV) irradiation that induces cutaneous injury upregulates p75, MC were sham- or UV-irradiated with solar simulated light (30 mJ/cm^2, metered at 285+5 nm). […] Furthermore, 48 hours after irradiation, cAMP levels were >70% decreased in UV- vs sham-irradiated cells."}, "[2]": {"target": "T1, p75^NTR (Homo sapiens, UniProt P08138)", "T1 sequence (P08138 29-427)": "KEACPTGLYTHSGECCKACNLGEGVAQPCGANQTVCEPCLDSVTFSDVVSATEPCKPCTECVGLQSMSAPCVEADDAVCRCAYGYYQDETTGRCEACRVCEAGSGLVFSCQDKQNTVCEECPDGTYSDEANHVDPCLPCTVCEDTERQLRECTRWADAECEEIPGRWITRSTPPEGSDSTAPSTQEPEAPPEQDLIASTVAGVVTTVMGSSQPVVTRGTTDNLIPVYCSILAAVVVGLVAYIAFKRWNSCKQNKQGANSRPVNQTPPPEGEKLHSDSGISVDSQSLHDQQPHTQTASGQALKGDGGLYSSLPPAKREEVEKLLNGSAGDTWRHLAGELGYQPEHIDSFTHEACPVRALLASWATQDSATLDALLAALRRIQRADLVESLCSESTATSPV", "conditions": "lysine 34 replaced by alanine; cited from earlier work"}},
  "data": [
    {"compound": "CC(C)Cn1c(=O)n(C)c(=O)c2[nH]cnc21", "note": "[IBMX]", "values": [
      {"measurement": "p75 mRNA upregulation", "setting": "[1]", "result": "substantially inhibited this upregulation"}
    ]},
    {"compound": "mutant NGF: NGF in which lysine (K) at position 34 is replaced by alanine (A)", "values": [
      {"measurement": "Lowering of affinity for p75NTR relative to NGF", "setting": "[2]", "result": 50, "unit": "%"}
    ]}
  ]
}
